Laboratory results as given in PMC10739865, “The Mycobacterium tuberculosis methyltransferase Rv2067c manipulates host epigenetic programming to promote its own survival” (Nature Communications, 2023).

What was measured:
Rv2067c [1] = biological target: T1, Rv2067c (Mycobacterium tuberculosis, UniProt P9WLL9)
Rv2067c [2] = biological target: T1, Rv2067c; remark: listed apart in the source

T1 sequence (P9WLL9 whole entry): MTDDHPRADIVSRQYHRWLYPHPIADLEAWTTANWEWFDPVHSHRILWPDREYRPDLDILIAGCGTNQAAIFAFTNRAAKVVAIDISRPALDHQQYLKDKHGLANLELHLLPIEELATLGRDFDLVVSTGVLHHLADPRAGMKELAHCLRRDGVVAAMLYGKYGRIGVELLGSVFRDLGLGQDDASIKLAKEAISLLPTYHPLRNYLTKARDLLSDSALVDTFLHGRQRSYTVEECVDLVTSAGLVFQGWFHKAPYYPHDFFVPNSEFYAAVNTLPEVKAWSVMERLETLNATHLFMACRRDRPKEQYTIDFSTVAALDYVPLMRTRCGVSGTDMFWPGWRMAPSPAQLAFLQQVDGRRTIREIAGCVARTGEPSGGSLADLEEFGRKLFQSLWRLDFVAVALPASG

Compound: C[S+](CC[C@H](N)C(=O)O)C[C@H]1O[C@@H](n2cnc3c(N)ncnc32)[C@H](O)[C@@H]1O (stereo partly drawn) [S-Adenosyl-L-methionine]
- radiometric methyltransferase assay (scintillation counting, autoradiography) (Rv2067c [1]): Rv2067c as MTase, and tritiated SAM as a methyl donor, methylation of histones was detected

Compound: Nc1ncnc2c1ncn2[C@@H]1O[C@H](CSCC[C@H](N)C(=O)O)[C@@H](O)[C@H]1O [S-adenosyl-L-homocysteine]
- X-ray crystallography, 2.40 Å (Rv2067c [2]): The coordinates for Rv2067c-SAH structure have been deposited in the Protein Data Bank
